Source: article PMC8525843 (Investigative Ophthalmology & Visual Science, 2021)

Assays:
[1] = test system: hypertonic saline-induced ocular hypertensive NZW rabbits; assay: IOP-lowering effect in hypertonic saline-induced ocular hypertensive NZW rabbits; type: in vivo, rabbit; details: 0.02%; at 1.5 hours; vs saline
rabbit eyes = details: after administration; cited from earlier work
patients = details: clinical data; cited from earlier work

In the case of `Cc1ccc(C(=O)OCc2ccc([C@@H](CN)C(=O)Nc3ccc4cnccc4c3)cc2)c(C)c1` [AR-13324, netarsudil], the “Emax of IOP reduction” value [1] is reported as 12.1 ± 0.9 mm Hg.

For `O=S(=O)(c1cccc2c(Cl)cccc12)N1CCCNCC1` [ML-9], the “IOP of rabbit eyes” value (rabbit eyes) is listed as “decreased in a dose-dependent manner”.

For `C[C@H]1CNCCCN1S(=O)(=O)c1cccc2cncc(F)c12` [ripasudil, Ripasudil], the “time for conjunctival hyperemia to resolve spontaneously” value (patients) is listed as ≤ 4 h.
